Positions of bridges follow the written chain, without caps; N, C: chain ends. Non-standard residues stand in square brackets, D forms with d. Residues, ends and D or L forms follow the SMILES beside them. *: point of attachment. Malonyl(2,2-Me2,histaminyl) = CC(C)(C(=O)NCCc1cnc[nH]1)C(=O)*; Ala(1H-tetrazol-5-yl) = N[C@@H](Cc1nnn[nH]1)C(=O)O; αMePhe(2-F) = C[C@](N)(Cc1ccccc1F)C(=O)O; αMeL = CC(C)C[C@](C)(N)C(=O)O; Nle = CCCC[C@H](N)C(=O)O; Aib = CC(C)(N)C(=O)O
Key:
human GLP2 receptor = target: T1, human GLP2 receptor (Homo sapiens, UniProt O95838); test: cAMP accumulation assay, functional agonism of human GLP2 receptor; format: cell-based; conditions: HEK cells infected with human GLP2 receptor BacMam virus, HTRF cAMP; for Emax: HEK293, read-out: Human GLP-2R agonist cAMP Emax; for EC50: read-out: Human GLP-2R agonist cAMP pEC50 (converted)
T1 construct: expressed in transfected cells; host or cells: HEK cells, BacMam virus transduction
T1 sequence (O95838 1-553): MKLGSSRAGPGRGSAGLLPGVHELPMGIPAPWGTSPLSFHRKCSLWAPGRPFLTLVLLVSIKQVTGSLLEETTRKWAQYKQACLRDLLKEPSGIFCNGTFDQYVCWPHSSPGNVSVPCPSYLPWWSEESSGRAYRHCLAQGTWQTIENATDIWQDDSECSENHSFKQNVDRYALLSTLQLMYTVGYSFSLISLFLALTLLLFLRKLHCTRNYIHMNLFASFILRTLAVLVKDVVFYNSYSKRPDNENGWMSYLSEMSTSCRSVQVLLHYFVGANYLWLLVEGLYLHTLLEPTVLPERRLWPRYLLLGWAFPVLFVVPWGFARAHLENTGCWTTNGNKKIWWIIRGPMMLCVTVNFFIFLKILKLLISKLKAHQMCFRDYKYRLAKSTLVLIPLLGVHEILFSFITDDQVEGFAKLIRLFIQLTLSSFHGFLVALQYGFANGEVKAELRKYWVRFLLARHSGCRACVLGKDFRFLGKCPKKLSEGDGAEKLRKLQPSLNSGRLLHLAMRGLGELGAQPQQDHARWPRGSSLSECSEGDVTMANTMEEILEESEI
Outline: (§1)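 HEK cells transduced for 24 hours with human GLP2 or GLP1 receptor BacMam virus were frozen, then stimulated with agonist in HBSS containing 0.5 mM IBMX. After 45 min at 37° C, cAMP was measured by HTRF after adding detection reagents in lysis buffer.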

human GLP1 receptor = target: T2, human GLP1 receptor (Homo sapiens, UniProt P43220); test: cAMP accumulation assay, functional agonism of human GLP1 receptor; format: cell-based; conditions: HEK cells infected with human GLP1 receptor BacMam virus, HTRF cAMP; for Emax: HEK293, read-out: Human GLP-1R agonist cAMP Emax; for EC50: read-out: Human GLP-1R agonist cAMP pEC50 (converted)
T2 construct: expressed in transfected cells; host or cells: HEK cells, BacMam virus transduction
Outline: as §1

T2 sequence (P43220 24-463): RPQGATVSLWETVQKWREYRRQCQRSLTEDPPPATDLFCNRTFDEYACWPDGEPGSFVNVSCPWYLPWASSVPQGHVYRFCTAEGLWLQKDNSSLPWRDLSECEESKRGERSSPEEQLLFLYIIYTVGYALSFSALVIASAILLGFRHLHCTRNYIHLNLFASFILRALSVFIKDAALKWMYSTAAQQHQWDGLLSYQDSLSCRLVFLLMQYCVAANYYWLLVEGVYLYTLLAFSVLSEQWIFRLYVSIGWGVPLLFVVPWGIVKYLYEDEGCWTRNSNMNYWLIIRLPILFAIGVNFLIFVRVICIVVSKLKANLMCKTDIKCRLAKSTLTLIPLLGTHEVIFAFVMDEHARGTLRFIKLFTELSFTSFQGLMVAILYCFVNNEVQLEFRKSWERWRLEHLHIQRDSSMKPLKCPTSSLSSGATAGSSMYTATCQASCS

Row | Structure (SMILES) | Emax (human GLP2 receptor) | EC50 (human GLP2 receptor) | Emax (human GLP1 receptor) | EC50 (human GLP1 receptor)
1 | CCCC[C@H](NC(=O)[C@H](CCC(=O)O)NC(=O)[C@@H]1CC(=O)NCCCC[C@H](NC(=O)[C@H](CC(=O)O)NC(=O)C(C)(C)C(=O)NCCc2c[nH]cn2)C(=O)N[C@@H](CO)C(=O)N[C@@](C)(Cc2ccccc2F)C(=O)N[C@@H](CO)C(=O)N1)C(=O)N[C@H](Cc1ccccc1)C(=O)N[C@H](C(=O)N[C@@](C)(CC(C)C)C(=O)N[C@@H](CC(C)C)C(=O)N[C@@H](CC(=O)O)C(=O)N[C@H]1CCC(=O)NCCCC[C@@H](C(=O)N[C@@H](CC(=O)O)C(=O)N[C@@H](Cc2ccccc2)C(=O)N[C@H](C(=O)N[C@H]2CCC(=O)NCCCC[C@@H](C(=O)N[C@H](C(=O)N[C@@H](CCCCN)C(N)=O)[C@@H](C)O)NC(=O)[C@H]([C@@H](C)CC)NC(=O)[C@H](CC(C)C)NC(=O)[C@H](Cc3c[nH]c4ccccc34)NC2=O)[C@@H](C)CC)NC(=O)[C@H](C)NC(=O)[C@H](C)NC(=O)[C@H](CCCCN)NC1=O)[C@@H](C)O [Example 33] ({Malonyl(2,2-Me2,histaminyl)}-DKS[αMePhe(2-F)]SDE[Nle][dF]T[αMeL]LDEKAAKDFIEWLIKTK-NH2; lactam 2-6, 14-18, 22-26; C-terminus assumed) | 102% | 0.0316 nM | 98.1% | 0.0251 nM
2 | CCCC[C@H](NC(=O)[C@H](CCC(=O)O)NC(=O)[C@@H]1CC(=O)NCCCC[C@H](NC(=O)[C@H](CCC(=O)O)NC(=O)C(C)(C)NC(=O)[C@@H](N)Cc2c[nH]cn2)C(=O)N[C@@H](CO)C(=O)N[C@@](C)(Cc2ccccc2F)C(=O)N[C@@H](CO)C(=O)N1)C(=O)N[C@H](Cc1ccccc1)C(=O)N[C@H](C(=O)N[C@@](C)(CC(C)C)C(=O)N[C@@H](CC(C)C)C(=O)N[C@@H](CC(=O)O)C(=O)N[C@H]1CCC(=O)NCCCC[C@@H](C(=O)N[C@@H](CC(=O)O)C(=O)N[C@@H](Cc2ccccc2)C(=O)N[C@H](C(=O)N[C@H]2CCC(=O)NCCCC[C@@H](C(=O)N[C@H](C(=O)N[C@@H](CCCCN)C(N)=O)[C@@H](C)O)NC(=O)[C@H]([C@@H](C)CC)NC(=O)[C@H](CC(C)C)NC(=O)[C@H](Cc3c[nH]c4ccccc34)NC2=O)[C@@H](C)CC)NC(=O)[C@H](C)NC(=O)[C@H](C)NC(=O)[C@H](CCCCN)NC1=O)[C@@H](C)O [Example 32] (H-H[Aib]EKS[αMePhe(2-F)]SDE[Nle][dF]T[αMeL]LDEKAAKDFIEWLIKTK-NH2; lactam 4-8, 16-20, 24-28 (inferred); C-terminus assumed) | 91.3% | 0.794 nM | 97.8% | 0.0251 nM
3 | CCCC[C@@H]1NC(=O)[C@H](CCC(=O)O)NC(=O)[C@@H](NC(=O)[C@H](CO)NC(=O)[C@](C)(Cc2ccccc2F)NC(=O)[C@H](CO)NC(=O)[C@@H](C)NC(=O)[C@H](CC(=O)O)NC(=O)C(C)(C)C(=O)NCCc2c[nH]cn2)CCCCNC(=O)C[C@@H](C(=O)N[C@@](C)(CC(C)C)C(=O)N[C@@H](CC(C)C)C(=O)N[C@@H](CC(=O)O)C(=O)N[C@H]2CCC(=O)NCCCC[C@@H](C(=O)N[C@@H](CC(=O)O)C(=O)N[C@@H](Cc3ccccc3)C(=O)N[C@H](C(=O)N[C@@H](CC(N)=O)C(=O)N[C@@H](Cc3c[nH]c4ccccc34)C(=O)N[C@@H](CC(C)C)C(=O)N[C@H](C(=O)N[C@@H](CCC(N)=O)C(=O)N[C@H]3CCC(=O)NCCCC[C@@H](C(N)=O)NC(=O)[C@H]([C@@H](C)O)NC(=O)[C@H]([C@@H](C)CC)NC(=O)[C@H](CCCCN)NC3=O)[C@@H](C)CC)[C@@H](C)CC)NC(=O)[C@H](C)NC(=O)[C@H](C)NC(=O)[C@H](CCCCN)NC2=O)NC(=O)[C@@H](Cc2ccccc2)NC1=O [Example 25] ({Malonyl(2,2-Me2,histaminyl)}-D[dA]S[αMePhe(2-F)]SKE[Nle][dF]D[αMeL]LDEKAAKDFINWLIQEKITK-NH2; lactam 6-10, 14-18, 27-31 (inferred); C-terminus assumed) | 103% | 0.0251 nM | 97.6% | 0.0316 nM

Continued, values first:

Row | Emax (human GLP2 receptor) | EC50 (human GLP2 receptor) | Emax (human GLP1 receptor) | EC50 (human GLP1 receptor) | Structure (SMILES)
4 | 103% | 0.251 nM | 98.1% | 0.631 nM | CCCC[C@H](NC(=O)[C@H](CCC(=O)O)NC(=O)[C@H](CC(=O)O)NC(=O)[C@H](CO)NC(=O)[C@H](Cc1ccccc1)NC(=O)[C@H](CO)NC(=O)CNC(=O)[C@H](Cc1nn[nH]n1)NC(=O)C(C)(C)C(=O)NCCc1c[nH]cn1)C(=O)N[C@H](Cc1ccccc1)C(=O)N[C@H](C(=O)N[C@H](C(=O)N[C@@H](CC(C)C)C(=O)N[C@@H](CC(=O)O)C(=O)N[C@@H](CC(C)C)C(=O)N[C@@H](CCCCN)C(=O)N[C@@H](C)C(=O)N[C@@H](C)C(=O)N[C@@H](CCCCN)C(=O)N[C@@H](CC(=O)O)C(=O)N[C@@H](Cc1ccccc1)C(=O)N[C@H](C(=O)N[C@@H](CC(N)=O)C(=O)N[C@@H](Cc1c[nH]c2ccccc12)C(=O)N[C@@H](CC(C)C)C(=O)N[C@H](C(=O)N[C@@H](CCC(N)=O)C(=O)N[C@H](C(=O)N[C@H]1CCC(=O)NCCCC[C@@H](C(N)=O)NC(=O)[C@H]([C@@H](C)O)NC(=O)[C@H]([C@@H](C)CC)NC1=O)[C@@H](C)O)[C@@H](C)CC)[C@@H](C)CC)[C@@H](C)CC)[C@@H](C)O [Example 83] ({Malonyl(2,2-Me2,histaminyl)}-[Ala(1H-tetrazol-5-yl)]GSFSDE[Nle][dF]TILDLKAAKDFINWLIQTEITK-NH2; lactam 28-31 (inferred); C-terminus assumed)
5 | 101% | 0.00316 nM | 96.6% | 0.316 nM | CCCC[C@H](NC(=O)[C@H](CCC(=O)O)NC(=O)[C@H](CC(=O)O)NC(=O)[C@H](CO)NC(=O)[C@H](Cc1ccccc1)NC(=O)[C@H](CO)NC(=O)CNC(=O)[C@H](CC(=O)O)NC(=O)C(C)(C)NC(=O)[C@@H](N)Cc1c[nH]cn1)C(=O)N[C@H](Cc1ccccc1)C(=O)N[C@H]1CC(=O)NCCCC[C@@H](C(=O)N[C@@H](CCCCN)C(=O)N[C@@H](C)C(=O)N[C@@H](C)C(=O)N[C@@H](CCCCN)C(=O)N[C@@H](CC(=O)O)C(=O)N[C@@H](Cc2ccccc2)C(=O)N[C@H](C(=O)N[C@@H](CC(N)=O)C(=O)N[C@@H](Cc2c[nH]c3ccccc23)C(=O)N[C@@H](CC(C)C)C(=O)N[C@H](C(=O)N[C@@H](CCC(N)=O)C(=O)N[C@H](C(=O)N[C@@H](CCCCN)C(=O)N[C@H](C(=O)N[C@H](C(=O)N[C@@H](CC(=O)O)C(N)=O)[C@@H](C)O)[C@@H](C)CC)[C@@H](C)O)[C@@H](C)CC)[C@@H](C)CC)NC(=O)[C@H](CC(=O)O)NC(=O)[C@H](CC(C)C)NC(=O)[C@H]([C@@H](C)CC)NC1=O [Example 97] (H-H[Aib]DGSFSDE[Nle][dF]DILDKKAAKDFINWLIQTKITD-NH2; lactam 12-16; N-terminus and C-terminus assumed)
6 | 101% | 0.0316 nM | 96.7% | 12.6 nM | CCCC[C@H](NC(=O)[C@H](CCC(=O)O)NC(=O)[C@H](CC(=O)O)NC(=O)[C@H](CO)NC(=O)[C@H](Cc1ccccc1)NC(=O)[C@H](CO)NC(=O)CNC(=O)[C@H](CC(=O)O)NC(=O)C(C)(C)NC(=O)[C@@H](N)Cc1c[nH]cn1)C(=O)N[C@H](Cc1ccccc1)C(=O)N[C@H](C(=O)N[C@H](C(=O)N[C@@H](CC(C)C)C(=O)N[C@@H](CC(=O)O)C(=O)N[C@@H](CC(C)C)C(=O)N[C@@H](CCCCN)C(=O)N[C@@H](C)C(=O)N[C@@H](C)C(=O)N[C@@H](CCCCN)C(=O)N[C@@H](CC(=O)O)C(=O)N[C@@H](Cc1ccccc1)C(=O)N[C@H](C(=O)N[C@@H](CC(N)=O)C(=O)N[C@@H](Cc1c[nH]c2ccccc12)C(=O)N[C@@H](CC(C)C)C(=O)N[C@H](C(=O)N[C@@H](CCC(N)=O)C(=O)N[C@H](C(=O)N[C@H]1CCCCNC(=O)CC[C@@H](C(N)=O)NC(=O)[C@H]([C@@H](C)O)NC(=O)[C@H]([C@@H](C)CC)NC1=O)[C@@H](C)O)[C@@H](C)CC)[C@@H](C)CC)[C@@H](C)CC)[C@@H](C)O [Example 101] (H-H[Aib]DGSFSDE[Nle][dF]TILDLKAAKDFINWLIQTKITE-NH2; lactam 30-33 (inferred); C-terminus assumed)

Reference: patent publication US20240270809A1, “ORAL GLP RECEPTOR AGONISTS” (priority 2020, published 2024)
